Results: patent US20250241962A1, “METHODS AND COMPOSITIONS FOR INCREASING NEURONAL ACTIVITY AND SYNAPTIC PLASTICITY” (SanBio, Inc., priority 2024, published 2025)

How the values were obtained:
[1] = system: vandefitemcel (or SB623 cells); test: PrestoBlue cell viability of vandefitemcel treated with CB-839; format: cell-based, human; conditions: incubation with CB-839, PrestoBlue HS
Description: Approximately 50 μL of conditioned medium (CM) was used to determine the glutamate concentration and cell viability. For this assay, PrestoBlue™ high-sensitivity (HS) Cell Viability Reagent (from Thermo Fisher Scientific, Waltham, MA) was used and the reaction absorbance of each sample was read after 2 hours of incubation following the manual procedure provided by the manufacturer.
Glutamate can be involved in cell metabolism, where it is transformed into α-ketoglutarate and then enters into the tricarboxylic acid cycle to generate ATP [25].

glutamate receptor = test: Glutamate receptor blockage on iFbN culture (MEA spike activity); format: cell-based, human; conditions: 50 μM
Description: Glutamatergic or GABAergic neurons, 9×10^4 cells per well or 1×10^5 cells per well, were plated in 25 μL volume cell in BrainPhys™ medium supplemented with NeuroCult™ SM1 neuronal supplement and incubated for 30-45 minutes at 37° C. and 5% CO2. For coculturing, vandefitemcel (or SB623) cells or astrocytes were cocultured by adding 10-20 μL of cell solution with 1.5×10^4 cells per well following a new incubation for 45 minutes at 37° C. and 5% CO2. Fresh medium was added to reach a volume of 400 μL per well and cells incubated at 37° C. and 5% CO2. Half of the medium volume was changed every three or four days. To isolate the presynaptic activity on MEAs with iFbNs after 50 days of culture, 50 μM of the broad glutamate receptor antagonist Kynurenic acid (from R&D Systems, Minneapolis, MN) was added at 90 seconds from the start of the recording. Spike activity was assessed to detect the blockage of glutamate receptor activity.
MEA recordings were performed at 37° C. and 5% CO2 using Maestro Edge (from Axion Biosystems, Atlanta, GA). The medium was changed at least two hours before the recordings. Before recordings, levels of CO2 were adjusted to 5%. The duration of each recording was five minutes using AxIS Navigator 3.6.2 with configuration module Neural Real-Time; Spontaneous+Viability from Axion Biosystems with minimum spike rate for active electrodes of five spikes/minute.

Row | SMILES | viability of vandefitemcel [1] | spike activity of iFbN culture (glutamate receptor)
1 | O=C(Cc1cccc(OC(F)(F)F)c1)Nc1ccc(CCCCc2nnc(NC(=O)Cc3ccccn3)s2)nn1 [CB-839, Telaglenastat] | did not alter the viability | 
2 | O=C(O)c1cc(=O)c2ccccc2[nH]1 [kynurenic acid, Kynurenic acid] |  | reduction in the spike activity
